Values of other authors, collected in patent US20140220138A1, “ENHANCED NITRIC OXIDE DELIVERY AND USES THEREOF” (Albert Einstein College of Medicine of Yeshiva University, priority 2011, published 2014).
Converted amounts (≈) assume the structure as drawn.

Columns and labels:
[1] = system: Bacillus subtilis
[2] = system: E. coli (ATCC 25922)

MIC90 [2]	SMILES	reduction in Bacillus viability ([1]; 20-25 μM NO repetitively added over time)	viability after exposure to NO ([1]; exposure to either 50 or 200 μM NO)
	[N]=O [NO, nitric oxide]	100 fold	no significant loss in viability
5 mM (≈ 1680 µg/mL)	N[C@@H](CCC(=O)N[C@@H](CSN=O)C(=O)NCC(=O)O)C(=O)O [GSNO, S-nitrosoglutathione]		
